We go through three compounds from US11065226B2, “Combination comprising EP4 antagonist and immune checkpoint inhibitor” (ONO PHARMACEUTICAL CO., LTD., priority 2016, dated 2021).

For assay [1], the system named is mouse colorectal cancer cell line MC38. The assay can be described thus: Combination therapy with Example 2-2 and anti-mouse PD-1 antibody in allograft model of MC38. It is filed as in vivo. The conditions noted are these: female C57BL/6 mice, Example 2-2 3 mg/kg orally twice a day day 8 to 24, anti-mouse PD-1 antibody i.p. 20 mg/kg day 8, 10 mg/kg day 14 and 20. As for the experimental part:
(§1) The effect of the combination therapy with the compound of Example 2-2 and an anti-mouse PD-1 antibody was evaluated in an allograft model of a mouse colorectal cancer cell line, MC38 (Cancer Res. (1975), 35(9), p 2434-9). The MC38 cells were cultured in a DMEM medium containing 10 vol % FBS, 100 units/mL penicillin, and 100 μg/mL streptomycin in a CO2 incubator. On the day of transplantation, the culture supernatant was removed, and then the MC38 cells were washed with PBS and collected. The collected MC38 cells were suspended in PBS and used as transplant cells. Under anesthesia, 1,000,000 transplant cells were subcutaneously transplanted into the right lateral abdominal regions of female C57BL/6 mice. On day 8 after the transplantation, the mice were divided into four groups of a vehicle group, an Example 2-2 compound-single therapy group, an anti-mouse PD-1 antibody-single therapy group, and a combination therapy group (the compound of Example 2-2 and the anti-mouse PD-1 antibody), each containing 10 individuals. […] The tumor volumes (mm^3) were calculated by the following equation from the tumor lengths along the minor axis and the major axis which were measured using a digital caliper. […]

The next assay addresses T1, rat EP4 receptor (Rattus norvegicus, UniProt P43114).
T1 construct: expressed in transfected cells; host or cells: CHO cells
The assay can be described thus: EP4 antagonistic activity measurement using prostanoid receptor subtype-expressing cells (cAMP, PGE2 10 nM). It counts as cell-based. As to conditions: CHO cells expressing rat EP4 receptor; inhibition of cAMP production by PGE2 10 nM; 30 minutes at room temperature. As for the experimental part:
CHO cells expressing rat EP4 receptor subtypes were prepared according to the methods of Nishigaki et al. (Non-Patent Document 4) and used for experiment. Cultured subconfluent cells were detached and suspended in an assay medium (MEM containing 1 mmol/L IBMX, 1% HSA) in a concentration of 1×10^6 cells/mL. To start the reaction, PGE2 was added to the cell suspension (25 μL) in a final concentration of 10 nmol/L, either alone or as a 25-μL PGE2 solution containing a test compound. After 30 minutes of reaction at room temperature, the amount of cAMP in the cells was quantified according to the method in the descriptions of the cAMP assay kit (CISBIO).
The antagonistic effect (IC50 value) of the test compound was calculated as a value that represents an inhibition rate against a reaction with PGE2 alone at 10 nM, a concentration that produces a submaximal cAMP producing effect.
A general note: Cyclic AMP is a second messenger, typically raised through Gs and lowered through Gi signalling.

Assay [2] relates to mouse colorectal cancer cell line MC38. The assay can be described thus: Combination therapy with Example 2-13 and anti-mouse CTLA-4 antibody in allograft model of MC38. It is filed as in vivo. The conditions noted are these: female C57BL/6 mice, Example 2-13 5 mg/kg orally twice a day day 7 to 28, anti-mouse CTLA-4 antibody i.p. 10 mg/kg day 7, 10, 14, 17. As for the experimental part: (§2) The effect of the combination therapy with the compound of Example 2-13 and an anti-mouse CTLA-4 antibody was evaluated in an allograft model of a mouse colorectal cancer cell line, MC38. The MC38 cells were cultured using a DMEM medium containing 10 vol % FBS, 2 mmol/L Glutamax, 100 units/mL penicillin, and 100 μg/mL streptomycin in a CO2 incubator. On the day of transplantation, the culture supernatant was removed, and then the MC38 cells were washed with PBS and collected. The collected MC38 cells were suspended in PBS and used as transplant cells. Under anesthesia, 1,000,000 transplant cells were subcutaneously transplanted into the right lateral abdominal regions of female C57BL/6 mice. On day 7 after the transplantation, the mice were divided into four groups of a vehicle group, an Example 2-13 compound-single therapy group, an anti-mouse CTLA-4 antibody-single therapy group, and a combination therapy group (the compound of Example 2-13 and the anti-mouse CTLA-4 antibody), each containing 15 individuals. […] The tumor volumes (mm^3) were calculated by the following equation from the tumor lengths along the minor axis and the major axis and the tumor height which were measured using a digital caliper. […]

Assay [3] relates to mouse colorectal cancer cell line CT26. The assay can be described thus: Combination therapy with Example 2-13 and anti-mouse PD-1 antibody in allograft model of CT26. It counts as in vivo. The conditions noted are these: female BALB/c mice, Example 2-13 5 mg/kg orally twice a day day 7 to 21, anti-mouse PD-1 antibody i.p. 3 mg/kg day 7, 10, 14, 17. As for the experimental part:
as §2, with “PD-1” for “CTLA-4”, “CT26 (Cancer Res. (2013), 73(12), p3591-603).” for “MC38.”, “CT26” for “MC38”, “RPMI” for “DMEM”, “BALB/c” for “C57BL/6”, “15 to 18” for “15”

Assay [4] deals with mouse colorectal cancer cell line MC38. The assay can be described thus: Combination therapy with Example 2-13 and anti-mouse PD-1 antibody in allograft model of MC38. It is filed as in vivo. As to conditions: female C57BL/6 mice. As for the experimental part:
as §1, with “Example 2-13” for “Example 2-2”, “and 100}μg/mL” for “and 100 μg/mL”, “anesthesia, 200,000” for “anesthesia, 1,000,000”, “day 7” for “day 8”

In assay [5] the test system is mouse fibrosarcoma cell line SalN. The assay can be described thus: Combination therapy with Example 2-13 and anti-mouse PD-1 antibody in allograft model of SalN. It counts as in vivo. The conditions noted are these: female A/J mice, Example 2-13 5 mg/kg orally twice a day day 7 to 21, anti-mouse PD-1 antibody i.p. 3 mg/kg day 7, 10, 14, 17. As for the experimental part:
as §2, with “PD-1” for “CTLA-4”, “fibrosarcoma” for “colorectal cancer”, “SalN (Cancer Res. (2012), 72(4), p 917-27).” for “MC38.”, “SalN” for “MC38”, “2,000,000” for “1,000,000”, “A/J” for “C57BL/6”

T1 sequence (P43114 whole entry): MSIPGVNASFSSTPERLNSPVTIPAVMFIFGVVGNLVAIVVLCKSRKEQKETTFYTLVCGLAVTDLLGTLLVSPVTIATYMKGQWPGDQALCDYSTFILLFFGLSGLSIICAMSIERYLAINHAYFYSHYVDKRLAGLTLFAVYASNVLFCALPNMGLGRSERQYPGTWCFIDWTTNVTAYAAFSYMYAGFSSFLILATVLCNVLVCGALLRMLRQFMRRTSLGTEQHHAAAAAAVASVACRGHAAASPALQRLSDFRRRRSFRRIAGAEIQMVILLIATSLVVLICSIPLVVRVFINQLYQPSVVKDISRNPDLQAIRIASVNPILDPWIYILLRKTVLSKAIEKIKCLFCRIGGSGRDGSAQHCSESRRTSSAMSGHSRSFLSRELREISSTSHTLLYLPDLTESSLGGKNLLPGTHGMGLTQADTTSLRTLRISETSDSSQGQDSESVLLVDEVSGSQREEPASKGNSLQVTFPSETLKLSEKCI

For `COCCNC(=O)c1ccc2c(c1)[C@]1(CCO2)C[C@H]1C(=O)Nc1cc(C#N)ccc1CCCC(=O)O` [Example 2-2], the “tumor growth (tumor volume, FIG. 2)” value in assay [1] was “inhibited the tumor growth alone”.
As to `Cn1cc(NC(=O)c2ccc3c(c2)[C@]2(CCO3)C[C@H]2C(=O)Nc2cc(C#N)ccc2CCCC(=O)O)cn1` [Example 2-5], inhibition against rat EP4 receptor was half-maximal at 1.3 nM (IC50).
`CC(C)NC(=O)c1ccc2c(c1)[C@]1(CCO2)C[C@H]1C(=O)Nc1cc(C#N)ccc1CCCC(=O)O` [Example 2-13, 4-[4-cyano-2-({[(2′R,4S)-6-(isopropylcarbamoyl)-2,3-dihydrospiro[chromene-4,1′-cyclopropan]-2′-yl]carbonyl}amino)phenyl]butanoic acid]: in assay [2], the “tumor growth (tumor volume, FIG. 3)” value is recorded as “inhibited the tumor growth alone”. Further, the “tumor growth (tumor volume, FIG. 5)” value in assay [3] is on record as “inhibited the tumor growth alone”. Further, in assay [4] (Example 2-13 3 mg/kg orally twice a day to day 28, anti-mouse PD-1 antibody i.p. 20 mg/kg day 7, 10 mg/kg day 13 and 19), the “Cases of Disappearance of Tumor/Cases” value is 0/10. Further, the “tumor growth (tumor volume, FIG. 1)” value in assay [4] (Example 2-13 3 mg/kg orally, anti-mouse PD-1 antibody i.p. 20 mg/kg then 10 mg/kg) is recorded as “inhibited the tumor growth alone”. In addition, in assay [5], the “tumor growth (tumor volume, FIG. 4)” value is “inhibited the tumor growth alone”.

By IC50 is commonly meant the midpoint of a concentration-inhibition curve. A lower IC50 goes with inhibition by little substance.
